Patent US20200179402A1, “MONOHYDROXYLATED 17ALPHA-HYDROXYPROGESTERONE CAPROATE FOR REDUCING CONTRACTILITY” (Indiana University Research and Technology Corporation, priority 2016, published 2020)

Experiments:
human myometrial tissue = test: Oxytocin-induced uterine contractility in human myometrial tissue strips (myograph); assay type: cell-based; conditions: oxytocin 100 nm; for oxytocin-induced contractile force (AUC) / oxytocin-induced contractile frequency: 10^−6 M for 30 minutes, over a 4-hour period, normalized to matched vehicle control (DMSO)
Experimental: In this Example, the effect of the monohydroxylated 17α-hydroxyprogesterone caproate (HPC-OH), 17α-hydroxyprogesteryl 6-hydroxycaproate, as compared to its parent compound, 17-hydoxyprogesterone caproate (HPC), and progesterone (P4) was analyzed in the setting of oxytocin-induced uterine contractility in human myometrial tissue. […] Myometrial strips (10 mm) were mounted in a digital myograph system ([…]) and maintained in modified Krebs buffer solution at physiologic temperature (37° C.) with constant premixed gas inflow. Oxytocin-induced (100 nm) contractility was measured before and after treatment with HPC-OH, HPC, or P4 (1 μm) for 30 minutes. Myometrial contractile frequency and force (AUC) were determined for each treatment over a 4-hour period and normalized to a matched vehicle control (DMSO). Statistical analysis was by student t-test (GraphPad Prism 7.0a). Statistical significance was defined as p<0.05.

THP-1 mononuclear cells = test: LPS-induced cytokine production by THP-1 mononuclear cells (multiplex assay); assay type: cell-based; conditions: 100 nM for 24 hours, then LPS 1 μg/mL for 24 hours
Experimental: In this Example, the ability of HPC—OH to decrease systemic inflammation-induced myometrial contractility was compared to HPC and progesterone (P4).
(§1) An in vitro model of systemic inflammation-induced uterine contractility was created with mononuclear and myometrial cell cultures to assess the effect of progestogen treatment. THP-1 mononuclear cells were cultured with HPC—OH (17α-hydroxyprogesteryl 6-hydroxycaproate), HPC, or P4 (all at 100 nM) for 24 hours then treated with lipopolysaccharide (LPS, 1 μg/mL) for 24 hours. Culture supernatant was characterized by multiplex assay for 7 inflammation-related cytokines: IL-1α, […], IL-6, IL-8, IL-10, TNFα, and MCP-1. Next, PHM1-41 human pregnancy myometrial cells pretreated with HPC for 24 hours were incubated with THP-1 culture supernatant (from the previous step) for 24 hours. Myometrial contractility was assessed after stimulation with 100 μM oxytocin by in-cell western (ICW) quantification of myosin light chain (MLC20) phosphorylation, a molecular event preceding contractility.

[1] = system: PHM1-41 human pregnancy myometrial cells; test: MLC20 phosphorylation by in-cell western in HPC-primed myometrial cells incubated with THP-1 culture supernatant; assay type: cell-based; conditions: supernatant of treated THP-1 cells for 24 hours, 100 μM oxytocin
Experimental: as §1

[2] = human, in vivo
Experimental: (§2) Female patients with a singleton pregnancy received intramuscular doses of 250 mg hydroxyprogesterone caproate for the reduction of preterm birth starting between 16 weeks 0 days and 20 weeks 6 days. More particularly, the patients were divided into three sample groups: Group 1 (patients at 16-20 weeks gestation); Group 2 (patients at 24-28 weeks gestation); and Group 3 (patients at 32-36 weeks gestation). All patients had blood drawn daily for 7 days to evaluate pharmacokinetics.

[3] = women with history of prior spontaneous preterm birth, clinical trials; cited from earlier work
[4] = Pharmacokinetics in pregnant patients given intramuscular hydroxyprogesterone caproate; conditions: female, human, plasma, im, 250 mg; for AUC: AUC(1-t); for AUC / Cmax / Tmax: 250 mg intramuscular; for AUC / Cmax: mean (standard deviation)
Experimental: as §2

[5] = Group 1 (16-20 weeks gestation, N = 6)
[6] = Group 2 (24-28 weeks gestation, N = 8)
[7] = Group 3 (32-36 weeks gestation, N = 11)

CC(=O)[C@H]1CC[C@H]2[C@@H]3CCC4=CC(=O)CC[C@]4(C)[C@H]3CC[C@]12C [P4, progesterone]
oxytocin-induced contractile force (AUC) (human myometrial tissue): 75%+/−30%
oxytocin-induced contractile frequency (human myometrial tissue): 63%+/−18%
production of IL-10 (THP-1 mononuclear cells): did not diminish
MLC20 phosphorylation [1]: Increased phosphorylation

CC(=O)[C@@]1(OC(=O)CCCCCO)CC[C@H]2[C@@H]3CCC4=CC(=O)CC[C@]4(C)[C@H]3CC[C@@]21C [HPC—OH, 17α-hydroxyprogesteryl 6-hydroxycaproate]
oxytocin-induced contractile force (AUC) (human myometrial tissue): 66%+/−33%
oxytocin-induced contractile frequency (human myometrial tissue): 67%+/−21%
contractile force when compared directly to HPC (human myometrial tissue; 10^−6 M, compared directly to HPC): 64%+/−33%
monocyte production of IL-1α (THP-1 mononuclear cells): did not result in a statistically significant change
monocyte production of IL-1β (THP-1 mononuclear cells): did not result in a statistically significant change
monocyte production of IL-6 (THP-1 mononuclear cells): did not result in a statistically significant change
monocyte production of IL-8 (THP-1 mononuclear cells): did not result in a statistically significant change
production of IL-10 (THP-1 mononuclear cells): did not diminish
production of MCP-1 (THP-1 mononuclear cells): decreased
significantly increase TNFα production (THP-1 mononuclear cells): not
levels of TNFα produced, compared with exposure to HPC (THP-1 mononuclear cells; versus HPC): significantly lower
MLC20 phosphorylation compared with HPC treated supernatant ([1]; versus HPC treated supernatant): trended towards a significant decline
half-life as compared to HPC [2]: longer half-life

CCCCCC(=O)O[C@]1(C(C)=O)CC[C@H]2[C@@H]3CCC4=CC(=O)CC[C@]4(C)[C@H]3CC[C@@]21C [HPC, 17α-hydroxyprogesterone caproate]
oxytocin-induced contractile frequency (human myometrial tissue): 71%+/−15%
production of IL-10 (THP-1 mononuclear cells): significantly reduced
production of MCP-1 (THP-1 mononuclear cells): decreased
significantly increase TNFα production (THP-1 mononuclear cells): significantly increase
risk reduction of recurrent preterm delivery [3]: 33%
half-life [4]: 394 h
AUC [4, 5]: 571 ng·h/mL
AUC [4, 6]: 1270 ng·h/mL
AUC [4, 7]: 1270 ng·h/mL
Cmax [4, 5]: 5 ng/mL
Cmax [4, 6]: 12.5 ng/mL
Cmax [4, 7]: 12.3 ng/mL
Tmax [4, 5]: 132 h
Tmax [4, 6]: 24 h
Tmax [4, 7]: 48 h
